According to patent US9029414B2, “Triterpenoid compounds and methods of use thereof” (Biotechnology Research Corporation, priority 2008, dated 2015):
pIC50: −log10 of the molar value.

Tests used:
[1] = target: EP2 receptor (Homo sapiens, UniProt P43116); assay: Cellular receptor functional assay (cAMP), EP2; assay type: cell-based; set-up: expressed in transfected cells; settings: for Agonist effect, cAMP measurement / Antagonist effect, cAMP measurement: EP2 receptor; for Antagonist effect, cAMP measurement: in presence of PGE2
Chain of EP2 receptor (P43116 whole entry): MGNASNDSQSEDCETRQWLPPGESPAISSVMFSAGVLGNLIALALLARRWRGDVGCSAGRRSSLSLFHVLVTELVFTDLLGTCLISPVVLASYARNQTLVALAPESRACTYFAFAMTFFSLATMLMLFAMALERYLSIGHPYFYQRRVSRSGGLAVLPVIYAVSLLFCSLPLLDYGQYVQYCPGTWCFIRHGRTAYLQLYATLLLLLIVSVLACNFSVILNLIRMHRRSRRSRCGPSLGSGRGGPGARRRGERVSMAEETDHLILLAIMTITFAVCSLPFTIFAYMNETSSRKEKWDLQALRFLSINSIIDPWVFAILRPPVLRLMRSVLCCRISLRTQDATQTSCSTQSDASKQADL
Method: FIG. 13. […] A: Cellular functional assay for EP2; B: Cellular functional assay for […].
To determine whether the inhibitory effect of DA001 on the ligand binding to EP receptors results from agonist or antagonist activity, DA001 was evaluated at a single concentration (10 μM) on cellular-specific receptor functional assays. Upon ligand binding, the EP receptors are activated which leads to an increase in intracellular cyclic AMP.
DA001 was evaluated at 6 concentrations in cellular assays assessing receptor function. Upon ligand binding, the EP2 and EP4 receptor is activated which leads to an increase in intracellular cyclic AMP.
DA021 inhibits PGE2 ligand binding to EP1, EP2 and EP4 receptors. To determine whether the inhibitory effect is due to agonist or antagonist activity, DA021 was evaluated and compared at 1 concentration (30 uM) in cellular assays assessing receptor function. Upon ligand binding, the EP receptors are activated which leads to an increase in intracellular cyclic AMP.

[2] = target: IP receptor (Homo sapiens, UniProt P43119); assay: Radioligand competition binding assay, IP; settings: target PGI, compound at 10 μM in duplicate, read-out: % inhibition of control specific binding
Chain of IP receptor (P43119 whole entry): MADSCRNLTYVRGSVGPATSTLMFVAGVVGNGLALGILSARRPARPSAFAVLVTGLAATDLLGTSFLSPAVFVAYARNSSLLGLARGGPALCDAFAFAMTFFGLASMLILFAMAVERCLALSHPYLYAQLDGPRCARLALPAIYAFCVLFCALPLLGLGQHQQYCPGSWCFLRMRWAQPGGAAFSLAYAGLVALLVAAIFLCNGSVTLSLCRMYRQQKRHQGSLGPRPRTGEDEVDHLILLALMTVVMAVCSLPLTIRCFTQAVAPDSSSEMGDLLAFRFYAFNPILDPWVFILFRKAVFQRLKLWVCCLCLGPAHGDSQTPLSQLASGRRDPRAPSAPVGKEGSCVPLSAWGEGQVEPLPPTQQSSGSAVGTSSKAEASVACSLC
Method: (§1) DA001 was further evaluated against 32 receptor binding assays. Radioligand competition assays were conducted whereby DA001 was tested at one concentration (10 uM) in duplicate. […] It could compete with the radioligand [^3H] PGE2 binding at the EP1 and EP4 receptors, and weakly competed with the EP2 and FP receptors.
(§2) To determine the targets of DA compounds, the compound was assessed in binding assays for the family of prostanoid receptors. Both compounds were tested at a single concentration (10 μM) in duplicate. DA001 and DA021 inhibit the ligand binding of prostaglandin E2 receptors EP1, EP2 and EP4 and moderately to prostaglandin (PGF) to its receptor (FP), but not prostaglandin I (PGI2), thromoboxane A and prostaglandin D2 to their receptors.

[3] = system: MOG-induced IFN-γ in primary splenocytes; assay: IFN-γ Quantikine ELISA in primary splenocytes of EAE mice; assay type: cell-based; settings: for Reduction in IFN-γ, % Reduction: splenocytes of EAE mice dosed 100 mg/kg orally daily vs MOG + Vehicle; for IFN-γ, Average / level of IFN-γ: splenocytes of EAE mice dosed 100 mg/kg orally daily, exogenous MOG; for decrease of IFN-γ in response to exogenous compound: splenocytes of compound-treated EAE mice (100 mg/kg); for decrease of IFN-γ in response to exogenous compound / reduction in the amount of MOG-induced IFN-γ: exogenous compound 30 μM, MOG 25 μg/mL; for reduction in the amount of MOG-induced IFN-γ: splenocytes of vehicle-treated EAE mice, 48 hrs
Method: On day 21, EAE mice were sacrificed by cervical dislocation and spleens were removed aseptically. The removed spleens were then cut with sterilized scissors and strained through […] mesh (BD Bioscience) with a plunger of 5 mL syringe (BD Bioscience) in 9 mL of RPMI 1640 (Invitrogen) with 100 U/mL penicillin and 100 μg/mL streptomycin (Sigma). The cell mixture was then added to 9 mL of Lympholyte (Cedarlane Laboratories) for gradient separation of splenocytes from red bloods cells by centrifugation at 1500 g for 20 min. After the centrifugation, the lympholyte layer containing splenocytes were carefully removed and washed with 10 mL of RPMI 1640 at 800 g for 10 min for three times. The isolated splenocytes were seeded onto different plate format and cultured with RPMI 1640 medium (Invitrogen) supplement with 10% heat inactivated fetal bovine serum (Invitrogen) and 100 U/mL penicillin and 100 μg/mL streptomycin at 37° C. CO2 incubator.
Splenocytes from EAE mice were cultured at the density of 1×10^6 cells in 12-well plates (Falcon) in the absence or presence of the MOG peptide (25 μg/mL) (Hooke Laboratories), DA001 and DA021 (30 μM) with RPMI 1640 medium (Invitrogen) supplement with 10% heat inactivated fetal bovine serum (Invitrogen) and 100 U/mL penicillin and 100 μg/mL streptomycin (Sigma) for 48 h. After 48 h, the supernatants were collected by pelleting the cells at 300 g for 10 min at 4° C. 50 μL of the each sample was added to the microtiter plate provided by the manufacturer of the Quantikine ELISA assay kit (R and D systems). Additional 50 μL of assay diluents buffer was added and incubated at room temperature for 2 h. After the incubation, the supernatants were discarded and the cells were washed with wash buffer. 100 μL of conjugate was added to the cells and the plate was again incubated at room temperature for 2 h. After another washing, 100 μL of substrate solution was added followed by 30 min incubation at room temperature. Subsequently, 100 μL of stop solution was added to each well and the plate was read in 450 nm wavelength on a microplate reader (Dynex Revelation 2.2).
Cytokines are believed to be one of the key signaling molecules in disease progression of EAE. Autoimmune response observed in the EAE model is believed to be mediated via the Th1 pathway, and interferon-gamma (IFN-γ) is the hallmark cytokine of the Th1 immune response. Therefore, it is critical to examine the efficacy of the compounds in modulating the levels of cytokines in EAE mice. To this end, splenocytes isolated from the spleens of EAE mice were cultured and treated with exogenous MOG peptide and the amount of IFN-γ was measured in response to exogenous DA001 and DA021 (30 μM) treatments using ELISA.
(§3) The cells were cultured in RPMI 1640 medium supplement with 10% heat inactivated fetal bovine serum and penicillin/streptomycin, in the absence or presence of MOG (25 μg/mL, Ex) with or without DA001 or DA021 (30 μM, Ex). Supernatants were collected after 48 hrs and IFN-γ Quantikine ELISA assay kit (R and D systems) was used according to the manufacturer's protocol. The amount of IFN-γ was calculated based on the standard curve established during the assay. The graph presented is the composite of two separate trials with duplicate samples in each trial. ***=p≦0.0001, **=p≦0.001, *=p≦0.01.
as §3, with “Cells” for “The cells”, “μg/mL)” for “μg/mL, Ex)”, “DA001” for “DA001 or DA021”, “μM).” for “μM, Ex).”, “***=p≦0.0001. […]” for “***=p≦0.0001, **=p≦0.001, *=p≦0.01.”

[4] = target: T1, EP1 receptor (Homo sapiens, UniProt P34995); assay: Radioligand competition binding assay, EP1; settings: EP1, target PGE2; compound at 10 μM in duplicate; read-out: % inhibition of control specific binding
T1 sequence (P34995 1-402): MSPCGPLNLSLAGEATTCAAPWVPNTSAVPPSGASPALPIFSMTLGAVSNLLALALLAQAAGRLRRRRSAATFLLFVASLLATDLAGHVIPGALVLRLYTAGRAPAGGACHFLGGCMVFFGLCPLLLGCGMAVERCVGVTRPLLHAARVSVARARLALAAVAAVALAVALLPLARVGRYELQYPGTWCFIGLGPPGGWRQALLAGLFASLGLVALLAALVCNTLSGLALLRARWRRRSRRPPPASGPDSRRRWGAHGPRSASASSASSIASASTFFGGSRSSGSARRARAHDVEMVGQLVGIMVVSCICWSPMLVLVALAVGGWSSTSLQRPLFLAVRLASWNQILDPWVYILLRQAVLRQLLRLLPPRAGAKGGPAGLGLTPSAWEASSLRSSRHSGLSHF
Method: as §1, §2

SMILES | Agonist effect, cAMP measurement ([1]; 30 uM) | Antagonist effect, cAMP measurement ([1]; 30 uM) | inhibition at 10 µM [2] | Reduction in IFN-γ, % Reduction [3] | IFN-γ, Average [3] | level of IFN-γ [3] | decrease of IFN-γ in response to exogenous compound [3] | reduction in the amount of MOG-induced IFN-γ [3] | inhibition at 10 µM [4] | Agonist effect, cAMP measurement ([1]; 10 μM) | Antagonist effect, cAMP measurement ([1]; 10 μM) | pIC50 ([1]; inhibition of PGE2-induced cAMP increase, 6 concentrations, read-out: IC50, antagonist effect)
C=C(C)[C@@H]1CC[C@]2(/C=N/O)CC[C@]3(C)C(CCC4[C@@]5(C)CCC(=O)[C@@](C)(CO)[C@@H]5CC[C@]43C)C12 (stereo partly shown) [DA021] | −3 | 4 | 9% | 78.3% | 135.3 ± 12.3 ρg/mL | 135 pg/mL | 78% | 62% | 31% | – | – | –
C=C(C)[C@@H]1CC[C@]2(C(=O)O)CC[C@]3(C)C(CC[C@@H]4[C@@]5(C)CC[C@H](O[C@@H]6OC[C@H](O)[C@H](O)[C@H]6O[C@@H]6O[C@@H](C)[C@H](O)[C@@H](O)[C@H]6O)[C@@](C)(CO)[C@@H]5CC[C@]43C)[C@@H]12 (stereo partly drawn) [DA001, 3-O-[α-L-rhamnopyranosyl-(1→2)-α-L-arabinopyranosyl]-3,23-dihydroxy-20(29)-lupen-28-oic acid] | – | – | 0% | 83.1% | 105.7 ± 5.1 ρg/mL | 105 pg/mL | 91% | 71% | 52% | −0.8% | 2.2% | 4.44
